Among the data in US8338414B2, “Immunosuppressive agent and anti-tumor agent comprising heterocyclic compound as active ingredient” (Zenyaku Kogyo KabushikiKaisha, priority 2005, dated 2012) are melting point and IC50 values, retold here.

The subject of one series is mouse spleen cells. Briefly: Proliferation inhibition assay for mouse spleen cells. It is filed as cell-based. The note with it: 72 h, 3 days, Alamar Blue. On the procedure:
Spleen cells (2×10^6 cells/mL) prepared from C57BL/6N female mice (8 weeks old, purchased from Charles River Laboratories Japan Inc.) were suspended in RPMI 1640 medium (containing 10% fetal bovine serum, 10 mM HEPES, 1 mM pyruvic acid, 4.5 g/L glucose, 100 units/mL penicillin, and 0.1 mg/mL streptomycin), and seeded in wells of a 96 well plate at 0.225 mL per well. Serial dilutions of test substances were added to respective wells, and then concanavalin A (Con A, 3 μg/mL), lipopolysaccharide (LPS, 100 μg/mL), or an anti-mouse IgM antibody (100 μg/mL) were added. Thereafter, they were incubated under conditions of carbon dioxide 5% at a temperature 37° C. for 3 days. Next, Alamar Blue solution was added at 50 μL per 150 μL, and after having cultured for one day, the fluorescence intensity at 590 nm using an excitation wavelength of 530 nm was determined by Cytoflour 4000 (Applied Biosystems).
On the technique in general: The colour change of resazurin is a common sign of viable cells or microbes.

[1] abbreviates: LPS 100 μg/mL, read-out: Inhibition of LPS response.
Setting [2] is: anti-mouse IgM antibody 100 μg/mL, read-out: Inhibition of Anti-IgM antibody response.
Setting [3] is: concanavalin A 3 μg/mL, read-out: Inhibition of Con A response.

Where two headings read alike, the source gives them in different places.

By melting point is commonly meant the temperature, or range, at which the solid turns liquid. `O=C1CN(c2nc(N3CCOCC3)nc(-n3c(C(F)F)nc4ccccc43)n2)CCN1` [Production Example 34, 2-(2-Difluoromethylbenzimidazol-1-yl)-4-morpholino-6-(3-oxopiperazin-1-yl)-1,3,5-triazine]: the melting point lay in the range of 255 to 257 °C.

The compound `Oc1ccc2c(nc(C(F)F)n2-c2nc(N3CCOCC3)nc(N3CCOCC3)n2)c1Cl` [Production Example 31, 2-(4-Chloro-2-difluoromethyl-5-hydroxybenzimidazol-1-yl)-4,6-dimorpholino-1,3,5-triazine] showed a melting point greater than 250 °C.

`Cc1cc2nc(C(F)F)n(-c3nc(N4CCOCC4)nc(N4CCOCC4)n3)c2cc1C` [Production Example 29, 2-(5,6-Dimethyl-2-difluoromethylbenzimidazol-1-yl)-4,6-dimorpholino-1,3,5-triazine]: the melting point was 217 to 220 °C.

`O=C1CN(c2nc(N3CCOCC3)nc(-n3c(C(F)F)nc4ccccc43)n2)CC(=O)N1` [Production Example 35, 2-(2-Difluoromethylbenzimidazol-1-yl)-6-(3,5-dioxopiperazin-1-yl)-4-morpholino-1,3,5-triazine] returned a melting point of 230 to 232 °C.

On to `Nc1cc(Cl)c2nc(C(F)F)n(-c3nc(N4CCOCC4)nc(N4CCCC4CO)n3)c2c1` (centres unmarked) [Production Example 30, 2-(6-Amino-4-chloro-2-difluoromethylbenzimidazol-1-yl)-4-(2-hydroxymethylpyrrolidin-1-yl)-6-morpholino-1,3,5-triazine], for which the melting point is 256 °C (dec.).

`COC(=O)N1CCN(c2nc(N3CCOCC3)nc(-n3c(C(F)F)nc4ccccc43)n2)CC1` [Production Example 43, 2-(2-Difluoromethylbenzimidazol-1-yl)-4-(4-methoxycarbonylpiperazin-1-yl)-6-morpholino-1,3,5-triazine] gave a melting point of 255 to 260 °C.

For `CC1(C)CN(c2nc(N3CCOCC3)nc(-n3c(C(F)F)nc4ccc(N)cc43)n2)CCO1` [Compound 13, 2-(6-Amino-2-difluoromethylbenzimidazol-1-yl)-4-(2,2-dimethylmorpholino)-6-morpholino-1,3,5-triazine], the melting point is 226 to 227 °C (dec.). For the same compound, the IC50 in the series with mouse spleen cells (setting [1]) lay in the range of 1 to 100 nM. Also, the IC50 in the series on mouse spleen cells (setting [2]) was 1 to 100 nM. The IC50 in the series on mouse spleen cells (setting [3]) lay in the range of 1 to 100 nM.

Take `Oc1ccc2c(c1)nc(C(F)F)n2-c1nc(N2CCOCC2)nc(N2CCOCC2)n1` [Compound 12, 2-(2-Difluoromethyl-5-hydroxybenzimidazol-1-yl)-4,6-dimorpholino-1,3,5-triazine]: the melting point lay within 272 to 274 °C. The IC50 with mouse spleen cells (setting [1]) was in the range of 1 to 100 nM. Besides, in the series on mouse spleen cells (setting [2]), the IC50 was in the range of 1 to 100 nM. In addition, the IC50 in the series on mouse spleen cells (setting [3]) lay in the range of 1 to 100 nM.

On to `CCOc1ccc2nc(C(F)F)n(-c3nc(N4CCOCC4)nc(N4CCOCC4)n3)c2c1` [Compound 9, 2-(2-Difluoromethyl-6-ethoxybenzimidazol-1-yl)-4,6-dimorpholino-1,3,5-triazine], for which the melting point lay in the range of 222 to 224 °C. Further, the IC50 with mouse spleen cells (setting [1]) fell in the range of 1 to 100 nM. Further, the IC50 in the series on mouse spleen cells (setting [2]) fell in the range of 1 to 100 nM. For the same compound, the IC50 with mouse spleen cells (setting [3]) was in the range of 1 to 100 nM.

For `C[C@@H]1OCCN(c2nc(N3CCOCC3)nc(-n3c(C(F)F)nc4ccc(N)cc43)n2)[C@@H]1C` (relative stereo) [Compound 8, 2-(6-Amino-2-difluoromethylbenzimidazol-1-yl)-4-(cis-2,3-dimethylmorpholino)-6-morpholino-1,3,5-triazine], the melting point is 220 to 222 °C (dec.). Moreover, the IC50 in the series on mouse spleen cells (setting [1]) fell in the range of 100 to 10000 nM. The IC50 in the series on mouse spleen cells (setting [2]) was in the range of 1 to 100 nM. Further, the IC50 in the series on mouse spleen cells (setting [3]) is 1 to 100 nM.

Compound `O=CN1CCN(c2nc(N3CCOCC3)nc(-n3c(C(F)F)nc4ccccc43)n2)CC1` [Production Example 33, 2-(2-Difluoromethylbenzimidazol-1-yl)-6-(4-formylpiperazin-1-yl)-4-morpholino-1,3,5-triazine] gave a melting point of 228 to 230 °C.
